Assay results: patent publication US12474337B2, “Therapeutic agent for autoimmune diseases or allergy, and method for screening for the therapeutic agent” (OSAKA UNIVERSITY, priority 2009, dated 2025)

Tested on: dendritic cells
Assay: Transwell overlaid with type 1 collagen or HMVEC-dLy monolayer, chemotaxis to CCL21 with and without Sema3A, after myosin II or Rho kinase inhibition
Assay type: cell-based, mouse
Method: An uncoated Transwell (pore diameter 5.0 μm; Corning) was placed in a 24-well plate containing CCL21 or CSCL12 in 0.6 ml of RPM1 containing 0.1% BSA. 1×10^5 dendritic cells in 0.1 ml of solution were added to the upper well of the Transwell, and incubated for 3 hours at 37° C. The cells in the […] chamber were ablated for 5 minutes with 5 mM PBS-EDTA, and counted by Guava. Fibronectin ([…]), type 1 collagen (3.0 mg/ml) or lymphatic endothelial cells were laid over the membrane of the top chamber for purposes of in vitro migration assay. In brief, 2×10^4 SVEC4-10 or HMVEC-dLy cells were seeded on the top or bottom surface of a Transwell insert coated with 2 μg/ml of fibronectin. […]
BMDC cells that had been treated for 30 minutes at 37° C. with 50 μM of blebbistatin or 30 μM of Y-27632 were applied to the upper chamber of a Transwell (pore diameter: 5 μm) overlaid with 3 mg/ml of type 1 collagen (left panel) and an HMVEC-dLy monolayer (right panel), and chemotaxis in response to CCL21 was measured in the […] chamber with and without Sema3A. The overall difference between groups was evaluated by one-way ANOVA. […]
A Transwell test was performed by the following methods. […] The cells in the lower chamber were ablated for 5 minutes by treatment with 5 mM of PBS-EDTA, and counted by Guava ViaCount assay on a Guava PCA system. […]

Row | SMILES | effect of Sema3A on dendritic cell trafficking after inhibitor treatment (DC cells treated 30 minutes at 37° C. with 50 μM blebbistatin) | effect of Sema3A on dendritic cell trafficking after inhibitor treatment (DC cells treated 30 minutes at 37° C. with 30 μM Y-27632)
1 | Cc1ccc2c(c1)C(=O)C1(O)CCN(c3ccccc3)C1=N2 (centres unmarked) [blebbistatin] | disappeared | 
2 | C[C@@H](N)[C@H]1CC[C@H](C(=O)Nc2ccncc2)CC1 [Y-27632] |  | disappeared
